Measured values published in patent publication US20100316655A1, “COMPOUNDS WITH MDR1-INVERSE ACTIVITY” (priority 2008, published 2010).

Assays:
[1] = system: KB-V1 adenocarcinoma cell line; assay: MTT cytotoxicity assay, P-gp (MDR1) expressing KB-V1 cells; MDR1 selectivity vs KB-3-1; format: cell-based, human; conditions: for IC50: MTT, 72 hours; for MDR1 select.: ratio of IC50 against KB-3-1 divided by IC50 against KB-V1
Description: (§1) Exemplary compounds were also tested against the KB-V1 adenocarcinoma cell line that expresses high levels of P-gp (the protein product of MDR1). […] MDR1 selectivity is determined by the ratio of IC50 against KB-3-1 cells divided by its IC50 against KB-V1 cells.
(§2) This example describes evaluation of compounds using the MTT cytotoxicity assay. Cell survival was measured by the MTT (3-(4,5-dimethylthiazol-2-yl)-2,5-diphenyltetrazolium bromide) assay as previously described by Ludwig, J. A. et al. Selective toxicity of NSC73306 in MDR1-positive cells as a new strategy to circumvent multidrug resistance in cancer. […] Briefly, cells were seeded in […] of growth medium at a density of 5000 cells/well in 96-well plates and allowed to establish for 24 hours, at which time serially diluted drugs were added in an additional […] growth medium. Cells were then incubated for 72 hours at 37° C. in humidified 5% CO2, at which time the growth media was drawn, and replaced with MTT in IMDM growth media and incubated for 4 hours. The MTT solution was then drawn from the wells, and […] acidified ethanol solution was added to each well and after 15 minutes absorption at 560 nm was measured.

[2] = system: KB-3-1 adenocarcinoma cells; assay: MTT cytotoxicity assay, parental P-gp-negative KB-3-1 cells; format: cell-based, human
Description: as §1, §2

[3] = Table 2, 72 hours, unit inferred

SMILES | IC50 ([1]; Table 2, unit inferred) [µM] | MDR1 select. ([1]; Table 2) | IC50 [2, 3] [µM] | IC50 ([1]; Homo sapiens, Table 1, KB-V1 (high P-gp)) [µM] | IC50 ([2]; Homo sapiens, Table 1, 72 hours, KB-3-1 (P-gp-negative)) [µM]
CC(C)NC(=S)NN=C1C(=O)Nc2ccccc21 [Compound M15, 1-Isatin-4-isopropyl-3-thiosemicarbazone] | 10.2 | 3.84 | 39.4 |  | 
O=C1Nc2ccccc2C1=NNC(=S)NCc1ccccc1 [Compound M6, 1-Isatin-4-benzyl-3-thiosemicarbazone] | 7.63 | 1.53 | 11.7 |  | 
O=C1Nc2ccccc2C1=NNC(=S)Nc1ccccc1Cl [Compound M5, 1-Isatin-(2′-chlorophenyl)-3-thiosemicarbazone] | 1.17 | 1.89 | 2.22 |  | 
COc1ccc(NC(=S)NN=C2Cc3ccccc3C2)cc1 |  |  |  | > 50 | > 50
O=C1Nc2ccccc2C1=NNC(=S)Nc1ccc(Oc2ccccc2)cc1 [Compound M21, 1-Isatin-4-(4-phenoxybenzene)-3-thiosemicarbazone] | 1.67 | 3.44 | 5.72 |  | 
